Values of other authors in article PMC4261083, “An atypical residue in the pore of Varroa destructor GABA-activated RDL receptors affects picrotoxin block and thymol modulation” (Insect Biochemistry and Molecular Biology, 2014).
pIC50: −log10 of the molar value.

System: Tetranychus RDL receptors
Design: method as in Asahi et al., 2014
Details: expressed in Xenopus oocytes, ref Asahi et al., 2014, cited from earlier work

| Structure (SMILES) | Sensitivity of Tetranychus RDL receptors to fipronil | pIC50 (read-out: IC50 for block of Tetranychus RDL receptors) |
| --- | --- | --- |
| N#Cc1nn(-c2c(Cl)cc(C(F)(F)F)cc2Cl)c(N)c1[S+]([O-])C(F)(F)F (centres unmarked) [fipronil] | resistant | – |
| Cc1cc(C2=NOC(c3cc(Cl)cc(Cl)c3)(C(F)(F)F)C2)ccc1C(=O)NCC(=O)NCC(F)(F)F (centres unmarked) [fluralaner] | – | ~8.00 |
